Reference: patent US20100047314A1 (OsteoGeneX Inc., priority 2008, published 2010)

What was measured:
male C57BL/6 mice [1] = assay: Serum osteocalcin bone formation marker by EIA Elisa in mice treated 30 days; assay type: in vivo, mouse; details: 100 mg/kg i.p. daily for 30 days, four month old male C57BL/6 mice
Procedure: (§1) Four month old male C57BL/6 mice were treated daily with saline vehicle or the sclerostin inhibitor of calcium folinate at 10-100 mg/kg (via i.p) for 30 days. Study endpoints included a biochemical marker of bone formation; osteocalcin, measured by EIA Elisa, and measurement of trabecular bone volume by mico-CT analysis on the proximal tibia and Lumbar L5.

male C57BL/6 mice [2] = assay: Trabecular bone volume by micro-CT analysis on proximal tibia and lumbar L5; assay type: in vivo, mouse
Procedure: as §1

mouse = assay: Mouse bone formation assay of SOST antagonist candidates, examined by micro-CT; assay type: in vivo; details: versus control solution
Description: (§2) Compounds useful in the methods of the present invention can be identified via a variety of methods known to one of skill in the art. Several exemplary methods for identifying such antagonists are described herein, including cell-based and in vitro techniques (Journal of Bone and Mineral Research 2006, 21(11), 1738-1749). A general method of identifying SOST antagonists involves evaluating the effects of antagonist candidates on bone formation under controlled conditions. Preferably bone formation is determined using micro-CT techniques on live animals. Preferred animals include rodents, more preferred are primates. Femur, tibia and vertebrae bones are particularly useful subjects for such study.
Briefly, the test animal is treated with a predetermined dose of a SOST antagonist candidate. […]
Once the dosing schedule has been completed, both test and control animals are examined to determine the quantity of bone formation present. […] Where necessary, levels of bone formation can be calculated by determining the volume of bone formation present in each animal. […]
For example, the mouse test animal is treated with a predetermined dose of a SOST antagonist candidate for a complete dosing schedule. […] Once the dosing schedule has been completed, both test and control animals are examined with sacrifice using micro-CT to determine the quantity of bone formation present.

Wnt pathway = assay: Modulation of the Wnt pathway (FIG. 1); details: doses of 2.5 ng (low), 60 ng (medium), 125 ng (high) and 1250 ng (very high)
Description: as §2

| Compound | percent increase in serum osteocalcin bone formation marker over saline controls (male C57BL/6 mice [1]) | increase in bone volume for the tibia over baseline controls (male C57BL/6 mice [2]; 10 mg/kg i.p. daily for 30 days, proximal tibia, micro-CT) | increase in bone volume for lumbar L5 over controls (male C57BL/6 mice [2]; 100 mg/kg i.p. daily for 30 days, lumbar L5, micro-CT) | quantity of bone formation (promotion of bone growth) (mouse) | modulation of the Wnt pathway to promote bone growth (Wnt pathway) |
| --- | --- | --- | --- | --- | --- |
| Nc1nc(=O)c2c([nH]1)NCC(CNc1ccc(C(=O)N[C@@H](CCC(=O)[O-])C(=O)[O-])cc1)N2C=O.[Ca+2] (some centres unmarked) [calcium folinate] | 41% | greater than 37% | 51% |  |  |
| Nc1nc(=O)c2c([nH]1)NCC(CNc1ccc(C(=O)NC(CCC(=O)O)C(=O)O)cc1)N2C=O (centres unmarked) [folinic acid] |  |  |  | promoting bone growth | modulating the Wnt pathway to promote bone growth |
